Reference: PMC3578047 (European journal of pharmacology, 2012)
Structures can show the parent of a compound that is named as a salt.

What was measured:
[1] = test system: streptozocin induced type I diabetic neuropathic pain (mechanical allodynia); format: in vivo, rat; conditions: for anti-allodynic effect over the time course versus vehicle: 15 min to 6 h; for effect on neuropathic allodynia versus vehicle: 10 mg/kg s.c., over 6 h time course
[2] = plasma pharmacokinetics in rat; format: in vivo; conditions: low dose, mean plasma AUC (S2)
human sEH = conditions: read-out: IC50 Human, fluorescent assay, ref Hwang 2007; cited from earlier work
[3] = cynomolgus monkey; ref Ulu et al., 2011; cited from earlier work
experimental logP = conditions: determined experimentally as described by Tsai et al. 2010
[4] = test system: lipopolysaccharide induced inflammatory pain (mechanical allodynia); format: in vivo, rat; conditions: for effect on lipopolysaccharide induced allodynia over the dose range: s.c. 60 min prior to lipopolysaccharide, at 2 h
naive rats [5] = experiment: von Frey assay in the absence of a pain state; format: in vivo, rat; conditions: for mechanical withdrawal thresholds in naive rats: 3 mg/kg
naive rats [6] = experiment: rotorod motor skill test; conditions: 3 mg/kg
[7] = test system: plasma epoxyeicosatrienoic acids, dihydroxyeicosatrienoic acids, PGE2 and PGD2; experiment: plasma oxylipin analysis in the inflammatory pain model; format: in vivo, rat; conditions: 2 h post lipopolysaccharide
[8] = ref Liu et al., 2009; cited from earlier work
[9] = ref Liu 2009; cited from earlier work
[10] = 3 mg/kg s.c. 60 min prior to lipopolysaccharide

## O=C(Nc1cccc(OC(F)(F)F)c1)N[C@H]1CC[C@H](Oc2ccc(C(=O)O)cc2)CC1 [t-TUCB, trans-4-[4-(3-trifluoromethoxyphenyl-l-ureido)-cyclohexyloxy]-benzoic acid]
[1]; 3 mg/kg s.c., diabetic rats
  anti-allodynic effect over the time course versus vehicle: significantly effective versus vehicle control over the time course but was delayed and less active when compared to APAU
[1]; 10 mg/kg, diabetic rats, early time points (Fig. S1, Table S3)
  mechanical withdrawal thresholds: increased mechanical withdrawal thresholds to pre-diabetic pain free scores at early time points
[1]; s.c., dose range 0.1-100 mg/kg, at 3 h
  dose of maximal response, the only significant dose: 10 mg/kg
[2]
  overall pharmacokinetics in rats: best overall pharmacokinetics at low dose
Human sEH
  IC50: 0.9 nM
[3]
  plasma protein binding: 99%
Experimental logP
  eLogP: 1.6

## Cc1ccc(-c2cc(C(F)(F)F)nn2-c2ccc(S(N)(=O)=O)cc2)cc1 [celecoxib, reference compound]
[1]; diabetic rats
  effect on neuropathic allodynia versus vehicle: no significant effect on the neuropathic allodynia
[4]; 10 mg/kg, 1 h prior to intraplantar lipopolysaccharide, over 6 h time course
  effect on lipopolysaccharide induced allodynia: marginal effect at the 3 hour time point

## CN1CC[C@]23c4c5ccc(O)c4O[C@H]2[C@@H](O)C=C[C@H]3[C@H]1C5 [morphine, Morphine sulfate, reference compound]
Naive rats [5]
  mechanical withdrawal thresholds in naive rats: significant increase in mechanical withdrawal thresholds
Naive rats [6]
  rotorod performance versus vehicle controls: no significant effect on rotorod performance

## O=C(NC12CC3CC(CC(C3)C1)C2)N[C@H]1CC[C@H](Oc2ccc(C(=O)O)cc2)CC1 [t-AUCB, trans-4-[4-(3-adamantan-1-yl-ureido)-cyclohexyloxy]-benzoic acid]
[1]; 3 mg/kg s.c., diabetic rats
  anti-allodynic effect over the time course versus vehicle: significant versus vehicle control over the time course but overall the effect was brief
[1]; s.c., dose range 1-100 mg/kg, at 2 h
  only dose with significant anti-allodynic effect: 100 mg/kg
[4]; [10]
  effect over the time course versus vehicle control: lacked a significance versus vehicle control over the time course
[4]
  effect on lipopolysaccharide induced allodynia over the dose range: significantly blocked pain related behavior only at the two highest doses 30 and 100 mg/kg
Human sEH
  IC50: […]

## CC(=O)N1CCC(NC(=O)NC23CC4CC(CC(C4)C2)C3)CC1 [APAU, 1-(1-acetypiperidin-4-yl)-3-adamantanylurea]
[1]; 3 mg/kg s.c., diabetic rats
  duration of anti-nociception: up to 5 h
  time of first anti-allodynic effect: 15 min
  anti-allodynic effect over the time course versus vehicle: blocked allodynia by the first measurement at 15 minutes
[1]; diabetic rats
  effect on neuropathic allodynia versus vehicle: significantly decreased allodynia
[1]; s.c., dose range 0.1-100 mg/kg, at 2 h
  most effective dose against allodynia: 3 mg/kg
[4]; 3 mg/kg oral gavage in PEG400, 1 h prior to lipopolysaccharide
  effect of oral gavage dose compared to s.c. dose: equaled the maximal effect of the s.c. dose
[4]; [10]
  earliest time point at which pain was blocked: 15 min
  effect over the time course versus vehicle control: significant versus vehicle control over the time course
[4]
  effect on lipopolysaccharide induced allodynia over the dose range: All doses of APAU except 0.1 mg/kg significantly blocked the lipopolysaccharide induced allodynia
Naive rats [5]
  mechanical withdrawal thresholds in naive rats: showed no effect in the assay
Naive rats [5]; 100 mg/kg
  nociceptive thresholds in absence of pain state versus vehicle: did not significantly alter the nociceptive thresholds
[7]; 3 mg/kg
  plasma PGE2 and PGD2 versus lipopolysaccharide + vehicle: reduced both prostaglandins significantly
[7]; 100 mg/kg
  plasma PGE2 and PGD2 versus lipopolysaccharide + vehicle: did not significantly decrease PGE2 and PGD2 levels
[7]; 3 and 100 mg/kg
  sum dihydroxyeicosatrienoic acids in plasma versus vehicle controls: significantly lowered dihydroxyeicosatrienoic acids
  sum epoxyeicosatrienoic acids in plasma versus vehicle controls: did not significantly alter sum epoxyeicosatrienoic acids levels
[8]
  plasma half-life: relatively short plasma half-life
[9]
  Water Solubility: 310 ±60 mg/L^b
[3]
  plasma protein binding: 35.5%
